{"source": "patent US10006166B2", "about": "“Integrating the production of carboxylated cellulose nanofibrils and cellulose nanocrystals using recyclable organic acids” (The United States of America as Represented by the …, priority 2016, dated 2018)", "protocol": "UV absorption spectrophotometric methods were employed for rapidly determining the soluble acid concentration in the solution. The UV-absorption spectra for oxalic, maleic, and toluenesulfonic acids are shown in FIGS. 3, 4, and 5, respectively.\nThe solubilities of oxalic, maleic, and toluenesulfonic acids at different temperatures were determined from UV absorption measurements in saturated solutions at different temperatures. The measured solubility data were fit to an exponential function as shown by Eq. (1). The maximum acid concentration that can be used at a given temperature can be determined from the exponential expression.\n[formula] Where s0 and B are fitting constants and listed in TABLE 1 for the three acids studied while T is in degree Kelvin.", "data": [{"smiles": "O=C(O)/C=C\\C(=O)O", "note": "[Maleic acid]", "values": [{"measurement": "Fitting constant B for predicting solubility using Eq. (1)", "value": "2,461"}, {"measurement": "Fitting constant s0 for predicting solubility using Eq. (1)", "value": "3.14 × 10^5"}]}]}
